From article PMC12021911, “Comparative evaluation of antimicrobial peptides: effect on formation, metabolic activity and viability of Klebsiella pneumoniae biofilms” (Frontiers in Microbiology, 2025)
≈ marks a conversion by molar mass, not a printed value. Where two headings read alike, the source gives them in different places. Bridge positions count the residues as written; N and C are the ends. Square brackets hold non-standard residues; d marks the D form. Peptide text beside a SMILES is read from it. * marks the point of attachment. X1 = CC[C@H](C)CCCCC(=O)*; Dab = NCC[C@H](N)C(=O)O

What was measured:
Assay type in all cases: cell-based, Klebsiella pneumoniae
K. pneumoniae IMT40061 [1] = experiment: microbe, parasite or virus in culture
Experimental: (§1) Three different strains of K. pneumoniae were investigated in this study which were originally isolated from a human, a pig and a dog (Table 2) and characterized in previous studies ([Krieger et al., 2021]; [Krieger et al., 2022]). Minimum inhibitory concentration (MIC) values were determined according to EUCAST guidelines by microdilution test and are shown in Supplementary Table S1.
(§2) Table S1 Minimum inhibitory concentration (MIC) values of the three K. pneumoniae strains,
(§3) determined according to EUCAST guidelines by microdilution test.
(§4) MIC [µg/mL] of indicated antibiotics

[2] = tested on: K. pneumoniae 42KC-108224-1; experiment: microbe, parasite or virus in culture
Experimental: as §1, §2, §3, §4

K. pneumoniae 17349 [3] = experiment: microbe, parasite or virus in culture
Experimental: as §1, §2, §3, §4

[4] = tested on: all three K. pneumoniae strains; experiment: crystal violet assay, biofilm formation, statements on all three strains; settings: for biofilm mass, % of the untreated control: all three strains, concentration not given
Experimental: (§5) To quantify biofilm formation, the crystal violet assay was done as described previously ([Sager et al., 2015]). Specifically, bacteria were grown in 10 mL BHI broth for 18 h at 37°C on a shaking platform (120 rpm). Subsequently 100 μL of a 1:100 dilution of this overnight culture in BHI was transferred to 96-well plates and incubated for 24 h at 37°C. Wells with BHI broth only were used as blank. Five replicates were investigated per strain. After incubation the suspension was discarded, plates were washed three times with tap water and air-dried. Subsequently, 100 μL of 1% crystal violet (T123.1, Th. Geyer GmbH & Co. KG, Renningen, Germany) in distilled water was added to each well and incubated for 15 min at room temperature before rinsing the plates four times with tap water and air-drying them again. One hundred μL of 99% ethanol were added to each well for 15 min at room temperature to dissolve the remaining crystal violet. Subsequently, the optical density at 540 nm (OD540) was measured using the BioTek Synergy H1 microplate reader to quantify biofilm mass remaining in the wells. OD values of the blank were subtracted from all the samples. Each experiment was conducted three times.
(§6) To determine the effect of the AMPs on biofilm formation of K. pneumoniae, a standardized bacterial suspension and serial dilutions of antimicrobial agents were incubated together as conducted for determination of planktonic growth. After incubation the crystal violet assay was performed as described above. The percentage of biofilm formation was calculated based on the growth control. The experiment was conducted at least three times.

[5] = tested on: K. pneumoniae 42KC-108224-1; experiment: fluorescence assay on mature biofilms (SYTO 9 / propidium iodide); settings: 24 h treatment of mature biofilm; strongest reduction, concentration not given
Experimental: The proportion of living and dead bacteria was determined using the fluorescence assay FilmTracer™ LIVE/DEAD biofilm viability kit (L10316, Life Technologies GmbH, Darmstadt, Germany). A bacterial count of 2 × 10^7 CFU/mL was inoculated in 50% BHI broth, 100 μL were added to a 96-well plate in duplicate and plates were incubated for 22 h at 37°C. Wells containing only BHI broth were used as blank. After incubation, the supernatant was discarded and plates were washed three times with sterile PBS. […] After incubation for 24 h at 37°C and washing three times with sterile PBS, 50 μL filter-sterilized water containing 0.15 μL each of SYTO™ 9 stain and propidium iodide stain was added to each well. Plates were incubated for 20 min at room temperature in the dark. The staining solution was discarded and the plates were washed three times with sterile PBS. The fluorescence intensity of the SYTO™ 9 stain (λex = 470 nm, λem = 500 nm) and the propidium iodide stain (λex = 490 nm, λem = 635 nm) were measured on a BioTek Synergy H1 microplate reader and corrected for the blank values. The percentage of fluorescence intensity was calculated based on the negative control. The SYTO™ 9/propidium iodide ratio was calculated. The experiment was conducted at least three times.

K. pneumoniae IMT40061 [6] = experiment: crystal violet assay, biofilm formation upon AMP treatment; settings: 16 μg/mL; 22 h, 37°C, 50% BHI; mean, n ≥ 3
Experimental: as §5, §6

[7] = tested on: K. pneumoniae 42KC-108224-1; experiment: as above; settings: for biofilm mass (crystal violet), percentage of the growth control: 16 μg/mL, 22 h, 37°C, 50% BHI, mean, n ≥ 3; for biofilm formation inhibited to: concentration not given
Experimental: as §5, §6

K. pneumoniae 17349 [8] = experiment: resazurin assay, metabolic activity of biofilm; settings: 16 μg/mL; 22 h co-incubation, 37°C, 50% BHI; n ≥ 3
Experimental: Biofilm viability was quantified using the resazurin assay as previously described ([Fontoura et al., 2023]) with minor modifications. A standardized bacterial suspension and serial dilutions of antimicrobial agents were incubated together as conducted for determination of planktonic growth and biofilm formation. After incubation, the bacterial suspension was discarded and plates were washed three times with sterile PBS. One hundred microliters of sterile PBS containing 2 μL of resazurin (6.75 mg/mL, in sterile PBS; R7017-1G, Merck KGaA, Darmstadt, Germany) were added per well. After an incubation of 3–5 h at 37°C fluorescence intensity was measured with an excitation wavelength (λex) of 528 nm and an emission wavelength (λem) of 645 nm by BioTek Synergy H1 microplate reader. Measured values of the blank were subtracted from all the samples. The percentage of metabolic activity was calculated based on the growth control. The experiment was conducted at least three times.

K. pneumoniae 17349 [9] = experiment: crystal violet assay, biofilm formation upon AMP treatment; settings: 22 h, 37°C, 50% BHI, mean, n ≥ 3
Experimental: as §5, §6

[10] = Klebsiella pneumoniae, IMT40061, EUCAST guidelines, microdilution test, read-out: MIC
[11] = Klebsiella pneumoniae, 42KC1082241, EUCAST guidelines, microdilution test, read-out: MIC
[12] = Klebsiella pneumoniae, 17349, EUCAST guidelines, microdilution test, read-out: MIC
[13] = Klebsiella pneumoniae, 42KC1082241
[14] = EUCAST guidelines, microdilution test
[15] = Klebsiella pneumoniae, IMT40061

Compound	MIC (K. pneumoniae IMT40061 [1]; [10]) [µg/mL]	MIC [2, 11] [µg/mL]	MIC (K. pneumoniae 17349 [3]; [12]) [µg/mL]	also measured
NCC[C@H](O)C(=O)N[C@@H]1C[C@H](N)[C@@H](O[C@H]2O[C@H](CN)[C@@H](O)[C@H](O)[C@H]2O)[C@H](O)[C@H]1O[C@H]1O[C@H](CO)[C@@H](O)[C@H](N)[C@H]1O [Amikacin]	4 (≈ 6.83 µM)	< 0.5	< 0.5	
CC1(C)S[C@@H]2[C@H](NC(=O)[C@H](N)c3ccccc3)C(=O)N2[C@H]1C(=O)O [Ampicillin]	> 32	> 32	16 (≈ 45.8 µM)	
C[C@H]1[C@H](NC(=O)/C(=N\OC(C)(C)C(=O)O)c2csc(N)n2)C(=O)N1S(=O)(=O)O [Aztreonam]	> 16	< 0.25	< 0.25	
CO/N=C(\C(=O)N[C@@H]1C(=O)N2C(C(=O)O)=C(COC(C)=O)CS[C@H]12)c1csc(N)n1 [Cefotaxime]	> 8	< 0.0625	< 0.0625	
CC(C)(O/N=C(\C(=O)N[C@@H]1C(=O)N2C(C(=O)[O-])=C(C[n+]3ccccc3)CS[C@H]12)c1csc(N)n1)C(=O)O [Ceftazidime]	> 32	< 0.25	< 0.25	
CO/N=C(\C(=O)N[C@@H]1C(=O)N2C(C(=O)O)=C(COC(N)=O)CS[C@H]12)c1ccco1 [Cefuroxime]	> 32	2 (≈ 4.71 µM)	1 (≈ 2.36 µM)	
O=C(O)c1cn(C2CC2)c2cc(N3CCNCC3)c(F)cc2c1=O [Ciprofloxacin]	> 4			MIC [2, 13]: 0.0625 µg/mL (≈ 0.189 µM); MIC (K. pneumoniae 17349 [3]; Klebsiella pneumoniae, 17349): < 0.0312 µg/mL
CC[C@H](C)CCCCC(=O)N[C@@H](CCN)C(=O)N[C@H](C(=O)N[C@@H](CCN)C(=O)N[C@H]1CCNC(=O)[C@H]([C@@H](C)O)NC(=O)[C@H](CCN)NC(=O)[C@H](CCN)NC(=O)[C@H](CC(C)C)NC(=O)[C@@H](CC(C)C)NC(=O)[C@H](CCN)NC1=O)[C@@H](C)O [Colistin] (X1-[Dab]T[Dab][Dab][Dab][dL]L[Dab][Dab]T; lactam 4-C (inferred); N-terminus assumed)				MIC (K. pneumoniae IMT40061 [1]; [14]): < 0.0625 µg/mL; MIC [2, 14]: 0.25 µg/mL (≈ 0.214 µM); MIC (K. pneumoniae 17349 [3]; [14]): 0.25 µg/mL (≈ 0.214 µM)
C[C@H]1c2cccc(O)c2C(=O)C2=C(O)[C@]3(O)C(=O)C(C(N)=O)=C(O)[C@@H](N(C)C)[C@@H]3[C@@H](O)[C@@H]21 [Doxycycline]	4 (≈ 9 µM)	1 (≈ 2.25 µM)	0.5 (≈ 1.13 µM)	
CNC(C)C1CCC(N)C(OC2C(N)CC(N)C(OC3OCC(C)(O)C(NC)C3O)C2O)O1 (stereo not drawn) [Gentamicin]	0.5 (≈ 1.05 µM)	< 0.125	0.25 (≈ 0.523 µM)	
C[C@@H](O)[C@H]1C(=O)N2C(C(=O)O)=C(SCCN=CN)C[C@H]12 [Imipenem]				MIC (K. pneumoniae IMT40061 [1]; [15]): < 0.125 µg/mL; MIC [2, 13]: < 0.125 µg/mL; MIC (K. pneumoniae 17349 [3]; Klebsiella pneumoniae, 17349): < 0.125 µg/mL
C[C@H]1COc2c(N3CCN(C)CC3)c(F)cc3c(=O)c(C(=O)O)cn1c23 [Levofloxacin]	> 8			MIC [2, 13]: < 0.0625 µg/mL; MIC (K. pneumoniae 17349 [3]; Klebsiella pneumoniae, 17349): < 0.0625 µg/mL
C[C@@H](O)[C@H]1C(=O)N2C(C(=O)O)=C(S[C@@H]3CN[C@H](C(=O)N(C)C)C3)[C@H](C)[C@H]12 [Meropenem]				MIC (K. pneumoniae IMT40061 [1]; [15]): < 0.125 µg/mL; MIC [2, 13]: < 0.125 µg/mL; MIC (K. pneumoniae 17349 [3]; Klebsiella pneumoniae, 17349): < 0.125 µg/mL
COc1c(N2C[C@@H]3CCCN[C@@H]3C2)c(F)cc2c(=O)c(C(=O)O)cn(C3CC3)c12 [Moxifloxacin]	> 4	0.0625 (≈ 0.156 µM)	0.25 (≈ 0.623 µM)	
CCN1CCN(C(=O)N[C@@H](C(=O)N[C@@H]2C(=O)N3[C@@H]2SC(C)(C)[C@@H]3C(=O)O)c2ccccc2)C(=O)C1=O [Piperacillin]	> 64	4 (≈ 7.73 µM)	2 (≈ 3.86 µM)	
NC[C@H]1O[C@H](O[C@H]2[C@H](O)[C@@H](O[C@H]3O[C@H](CO)[C@@H](O)[C@H](N)[C@H]3O)[C@H](N)C[C@@H]2N)[C@H](N)C[C@@H]1O [Tobramycin]	4 (≈ 8.56 µM)	0.25 (≈ 0.535 µM)	< 0.125	
Ampicillin/Sulbactam				MIC (K. pneumoniae IMT40061 [1]; [14]): > 32/4; MIC [2, 14]: 8/4; MIC (K. pneumoniae 17349 [3]; [14]): 1/4
GIINTLQKYYCRVRGGRCAVLSCLPKEEQIGKCSTRGRKCCRRKK [hbD3, Human defensin, purchased from PeptaNova GmbH]				biofilm mass, % of the untreated control [4]: less than 40%; biofilm mass reduced to ([4]; concentration and strain not given): ≤ 28%
KRFRIRVRV-NH2 [compound 1037, Synthetic antimicrobial peptide]				viable biofilm mass (SYTO™ 9) [5]: 43%; biofilm mass (crystal violet), percentage of the growth control (K. pneumoniae IMT40061 [6]): 67%; biofilm mass (crystal violet), percentage of the growth control [7]: 53%
LLGDFFRKSKEKIGKEFKRIVQRIKDFLRNLVPRTES-OH [LL-37, Human cathelicidin, purchased from GENAXXON bioscience GmbH]				metabolic activity of the biofilm (resazurin), percentage of the growth control (K. pneumoniae 17349 [8]): 30%; biofilm mass, % of the untreated control [4]: less than 40%; biofilm mass (crystal violet), percentage of the growth control (K. pneumoniae 17349 [9]; 0.5 μg/mL): 140%; biofilm mass (crystal violet), percentage of the growth control (K. pneumoniae 17349 [9]; 16 μg/mL): 13%
Piperacillin/Tazobactam				MIC (K. pneumoniae IMT40061 [1]; [14]): > 64/4; MIC [2, 14]: 1/4; MIC (K. pneumoniae 17349 [3]; [14]): 1/4
VDKPPYLPRPRPPROIYNO-NH2 [Onc72, Insect-derived proline-rich AMP, derivate of Oncopeltus antibacterial peptide 4]				viable biofilm mass (SYTO™ 9) [5]: 51%; biofilm mass (crystal violet), percentage of the growth control [7]: 36%; biofilm formation inhibited to [7]: 36%
VDKPPYLPRPRPPRrIYNr-NH2 [Onc112, Insect-derived proline-rich AMP, derivate of Oncopeltus antibacterial peptide 4]				viable biofilm mass (SYTO™ 9) [5]: 55%; biofilm mass (crystal violet), percentage of the growth control [7]: 26%; biofilm formation inhibited to [7]: 26%
